Measurements published in US20100249123A1, “NOVEL BENZAMIDE DERIVATIVES AS MODULATORS OF THE FOLLICLE STIMULATING HORMONE” (ADDEX PHARMA SA, priority 2007, published 2010).

The compounds below were run against T1, rat follicle stimulating hormone receptor (rFSHR) (Rattus norvegicus, UniProt P20395) (assay: Intracellular cAMP measurement (HTRF) assay, antagonism of EC70 of hFSH). Conditions: HEK293 cells expressing rFSHR, 1 ng/ml hFSH (EC70), read-out: Class (IC50 to antagonise an EC70 of FSH receptors agonist such as hFSH).
T1 construct: expressed in transfected cells
T1 sequence (P20395 18-692): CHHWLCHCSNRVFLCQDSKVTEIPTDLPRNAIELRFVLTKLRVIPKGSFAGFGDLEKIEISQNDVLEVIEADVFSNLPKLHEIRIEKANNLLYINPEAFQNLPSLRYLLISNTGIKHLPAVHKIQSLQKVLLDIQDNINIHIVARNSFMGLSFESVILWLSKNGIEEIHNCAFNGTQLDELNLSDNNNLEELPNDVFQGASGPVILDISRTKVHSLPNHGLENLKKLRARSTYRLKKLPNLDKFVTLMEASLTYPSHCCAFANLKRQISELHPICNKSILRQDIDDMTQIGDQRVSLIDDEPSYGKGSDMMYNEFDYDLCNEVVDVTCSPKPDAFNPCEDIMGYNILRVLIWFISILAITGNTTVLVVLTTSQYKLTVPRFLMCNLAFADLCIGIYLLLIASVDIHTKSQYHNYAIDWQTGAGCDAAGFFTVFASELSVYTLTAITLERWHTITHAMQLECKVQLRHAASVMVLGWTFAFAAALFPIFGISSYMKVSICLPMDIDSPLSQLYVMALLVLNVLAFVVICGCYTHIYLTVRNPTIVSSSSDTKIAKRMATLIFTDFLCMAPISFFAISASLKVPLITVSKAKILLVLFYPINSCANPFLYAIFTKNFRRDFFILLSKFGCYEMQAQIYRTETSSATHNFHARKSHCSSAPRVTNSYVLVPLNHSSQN
Type: cell-based
From the text: Intracellular cAMP Measurement Assay
The Intracellular cAMP measurement assay is a functional cell-based assay used to study GPCR function. This method relies on a Time-Resolved Fluorescence (HTRF) assay to measure the cAMP accumulation upon receptor-mediated Gs protein activation in cells expressing recombinant GPCR or in cells from native tissues. In brief, this method is a competitive immunoassay between native cAMP produced by cells and the cAMP labeled with a fluorescent tag. The endogenously produced cAMP competes with exogenous added d2-labelled cAMP for the cAMP binding site on a Eu3+ cryptate labelled anti-cAMP antibody. The d2-labelled cAMP and the Eu^3+ labelled antibody produces a basal fluroresence via HTRF and therefore an intracellular increase in unlabelled cAMP is detected as decrease in this signal. cAMP is one of the most important intracellular mediators. Its concentration in cells can be increased upon binding of many hormones to their receptors. The most studied pathway consists in the release of α-subunit GTP-binding proteins following ligand-receptor interaction, which in turn activates or inhibits the ATP/cAMP conversion function of adenylate cyclase enzyme. cAMP is then involved in many complex regulatory processes such as protein kinase activation or ion channel gating. This method is widely used to study receptor activation of G protein in cells over-expressing GPCRs or in native cells, including FSH receptors expressing cells (Gabriel et al., Assay Drug Dev. Technol., 1, 291-303, 2003).
Transfection and cell culture: The cDNA encoding the rat follicle stimulating hormone receptor (rFSHR), (accession number NM_199237, NCBI Nucleotide database browser) was subcloned into an expression vector containing also the hygromycin resistance gene. Transfection of this vector into HEK293 cells with PolyFect reagent (Qiagen) according to supplier's protocol, and hygromycin treatment allowed selection of antibiotic resistant cells which had integrated stably one or more copies of the plasmid. Positive cellular clones expressing rFSHR were identified in a functional assay measuring cAMP production in cells following stimulation by addition of purified human follicle stimulating hormone (hFSH).
HTRF cAMP assay: On the day of the experiment, cells were detached from the Petri dish and distributed in a low volume, black-walled 384-well plate at a density of 5,000 cells/well in an assay buffer containing 1 mM IBMX to prevent cAMP degradation by cytoplasmic phosphodiesterases. The determination of the cAMP accumulation was performed using an HTRF assay (Trinquet et al., Anal. Biochem., 358, 126-135, 2006). Briefly, cells were incubated for 3 min in the presence of increasing concentrations of negative allosteric modulators (from 1 nM to 60 μM) and then 30 min in the presence of 1 ng/ml of hFSH, an agonist of rat FSH receptor, that has been determined in previous experiments to correspond to the EC70, a concentration that gives 70% of the maximal response of the agonist, and is in accordance with published data (Fox et al., Mol. Endocrin., 15, 378-389, 2001). […] Cells were then lysed by adding the HTRF assay components, the europium cryptate-labeled anti-cAMP antibody, and the XL665-labeled cAMP analog, previously diluted in a HEPES buffer (50 mM, pH 7.0) containing 0.8 M potassium fluoride, 0.2% (w/v) BSA, and 1% (v/v) Triton X-100, a percentage of detergent that ensure complete cell lysis. Assay was then incubated for 1 hr at room temperature, and HTRF signal was measured after excitation at 337 nm, and dual emission at 620 and 665 nm, using a RubyStar fluorimeter (BMG Labtechnologies). Moreover, the fluorescence ratio of an appropriate range of known concentrations of cAMP standards was also included on each assay plate to produce a standard cAMP curve. […]

COc1ccc(C(=O)Nc2ccc(C(C)(C)CNC(=O)c3nn(C)c4ccccc34)c(C)c2)cc1OC [Example 110, 1-Methyl-1H-indazole-3-carboxylic acid{2-[4-(3,4-dimethoxy-benzoylamino)-2-methyl-phenyl]-2-methyl-propyl}-amide] and COc1ccc(C(=O)Nc2cc(Cl)c(C(C)(C)C#N)c(Cl)c2)cc1OC [Example 120, N-[3,5-Dichloro-4-(cyano-dimethyl-methyl)-phenyl]-3,4-dimethoxy-benzamide] fall in the same range of IC50: 150 to 400 nM for the first, 150 to 400 nM for the second.

Going from COc1ccc(C(=O)Nc2ccc(C(C)(C)CNC(=O)c3ccc4c(c3)nc(C)n4C)cc2)cc1OC [Example 209] to COc1ccc(C(=O)Nc2ccc(C(C)(C)CNC(=O)c3cnc4[nH]ccc4c3)cc2)cc1OC [Example 202], the IC50 falls from ≥ 1000 nM to < 150 nM. The second is the more potent here.

COc1ccc(C(=O)Nc2ccc(C(C)(C)CCNC(=O)c3cnc4[nH]cnc4c3)cc2)cc1OC [Example 199, 3H-Imidazo[4,5-b]pyridine-6-carboxylic acid {3-[4-(3,4-dimethoxy-benzoylamino)-phenyl]-3-methyl-butyl}-amide] and COc1ccc(C(=O)Nc2ccc(C(C)(C)CNC(=O)c3c[nH]c4ccccc34)cc2)cc1OC [Example 101, 1H-Indole-3-carboxylic acid{2-[4-(3,4-dimethoxy-benzoylamino)-phenyl]-2-methyl-propyl}-amide] fall in the same range of IC50: 150 to 400 nM for the first, 150 to 400 nM for the second.

Compared with COc1ccc(C(=O)Nc2ccc(C(C)(C)CNC(=O)c3ccc4[nH]c(C)nc4c3)cc2)cc1OC [Example 208], COc1ccc(C(=O)Nc2ccc(C(C)(C)C#N)c(-c3cccs3)c2)cc1OC [Example 206, N-[4-(Cyano-dimethyl-methyl)-3-thiophen-2-yl-phenyl]-3,4-dimethoxy-benzamide] is lower in IC50: 400 to 1000 nM for the first, < 150 nM for the second. The second is the more potent here.

First: COc1ccc(C(=O)Nc2ccc(C(C)(C)CNC(=O)c3c[nH]c4cnccc34)cc2)cc1OC [Example 215]
Second: COc1ccc(C(=O)Nc2ccc(C(C)(C)CNC(=O)c3nc4ccncc4[nH]3)cc2)cc1OC [Example 214]
The IC50 of the first is higher: 400 to 1000 nM for the first, 150 to 400 nM for the second. The second is the more potent here.

First: COc1ccc(C(=O)Nc2ccc(C(C)(C)CNC(=O)c3cn(CCCN(C)C)c4ccc(F)cc34)cc2)cc1OC [Example 192, 1-(3-Dimethylamino-propyl)-5-fluoro-1H-indole-3-carboxylic acid {2-[4-(3,4-dimethoxy-benzoylamino)-phenyl]-2-methyl-propyl}-amide]
Second: COc1ccc(C(=O)Nc2ccc(C(C)(C)CCNC(=O)c3nc4cccnc4[nH]3)cc2)cc1OC [Example 196, 3H-Imidazo[4,5-b]pyridine-2-carboxylic acid {3-[4-(3,4-dimethoxy-benzoylamino)-phenyl]-3-methyl-butyl}-amide]
The IC50 of the first is higher: ≥ 1000 nM for the first, 150 to 400 nM for the second. The second is the more potent here.

COc1ccc(C(=O)Nc2ccc(C(C)(C)CCNC(=O)c3cnc4ccccn34)cc2)cc1OC [Example 194, Imidazo[1,2-a]pyridine-3-carboxylic acid {3-[4-(3,4-dimethoxy-benzoylamino)-phenyl]-3-methyl-butyl}-amide] and COc1ccc(C(=O)Nc2ccc(C(C)(C)C#N)c(-c3cccnc3)c2)cc1OC [Example 132, N-[4-(Cyano-dimethyl-methyl)-3-pyridin-3-yl-phenyl]-3,4-dimethoxy-benzamide] fall in the same range of IC50: 150 to 400 nM for the first, 150 to 400 nM for the second.

Going from COc1ccc(C(=O)Nc2ccc(C(C)(C)CNC(=O)c3cnn4ccccc34)cc2)cc1OC [Example 41] to COc1ccc(C(=O)Nc2ccc(C(C)(C)C#N)c(N3CCOCC3)c2)cc1OC [Example 204, N-[4-(Cyano-dimethyl-methyl)-3-morpholin-4-yl-phenyl]-3,4-dimethoxy-benzamide], the IC50 rises from < 150 nM to ≥ 1000 nM. The first is the more potent here.

First: COc1ccc(C(=O)Nc2ccc(C(C)(C)CNC(=O)c3cc(C)[nH]n3)cc2)cc1OC [Example 127]
Second: COCCn1cc(C(=O)NCC(C)(C)c2ccc(NC(=O)c3ccc(OC)c(OC)c3)cc2)c2cc(F)ccc21 [Example 191, 5-Fluoro-1-(2-methoxy-ethyl)-1H-indole-3-carboxylic acid {2-[4-(3,4-dimethoxy-benzoylamino)-phenyl]-2-methyl-propyl}-amide]
The IC50 of the first is higher: 400 to 1000 nM for the first, 150 to 400 nM for the second.

First: COc1ccc(C(=O)Nc2cccc(C(C)(C)CNC(=O)c3cnc4ccccn34)c2)cc1OC [Example 203, Imidazo[1,2-a]pyridine-3-carboxylic acid {2-[3-(3,4-dimethoxy-benzoylamino)-phenyl]-2-methyl-propyl}-amide]
Second: COc1ccc(C(=O)Nc2cccc(C3(CNC(=O)c4nn(C)c5ccccc45)CCCC3)c2)cc1OC [Example 102, 1-Methyl-1H-indazole-3-carboxylic acid{1-[3-(3,4-dimethoxy-benzoylamino)-phenyl]-cyclopentylmethyl}-amide]
The IC50 of the first is lower: 150 to 400 nM for the first, ≥ 1000 nM for the second.

“1H-Pyrrolo[2,3-b]pyridine-5-carboxylic acid {2-[4-(3,4-dimethoxy-benzoylamino)-phenyl]-2-methyl-propyl}-amide [Example 201]” and COc1ccc(C(=O)Nc2ccc(C(C)(C)CNC(=O)c3ccc4[nH]ccc4c3)cc2)cc1OC [Example 142] fall in the same range of IC50: 150 to 400 nM for the first, 150 to 400 nM for the second.

COc1ccc(C(=O)Nc2ccc(C(C)(C)CNC(=O)c3cn4cccnc4n3)cc2)cc1OC [Example 186] and COc1ccc(C(=O)Nc2ccc(C(C)(C)CCNC(C)=O)c(-c3cccnc3)c2)cc1OC [Example 221, N-(4-(4-acetamido-2-methylbutan-2-yl)-3-(pyridin-3-yl)-phenyl)-3,4-dimethoxybenzamide] cannot be ordered by IC50: ≥ 1000 nM for the first, 400 to 1000 nM for the second.

COc1ccc(C(=O)Nc2ccc(C(C)(C)CNC(=O)c3ccc4[nH]cnc4c3)cc2)cc1OC [Example 207] and COc1ccc(C(=O)Nc2ccc(C(C)(C)CNC(=O)c3n[nH]c4ccccc34)c(C)c2)cc1OC [Example 109, 1H-Indazole-3-carboxylic acid{2-[4-(3,4-dimethoxy-benzoylamino)-2-methyl-phenyl]-2-methyl-propyl}-amide] fall in the same range of IC50: 150 to 400 nM for the first, 150 to 400 nM for the second.

First: COc1ccc(C(=O)Nc2ccc(C(C)(C)CNC(=O)c3c[nH]c4ncc(F)cc34)cc2)cc1OC [Example 216]
Second: COc1ccc(C(=O)Nc2ccc(C(C)(C)CNC(=O)c3cnc4ccc(F)cn34)cc2)cc1OC [Example 211]
The IC50 of the first is higher: 150 to 400 nM for the first, < 150 nM for the second.

COc1ccc(C(=O)Nc2ccc(C(C)(C)C#N)c(C)c2)cc1OC [Example 95, N-[4-(Cyano-dimethyl-methyl)-3-methyl-phenyl]-3,4-dimethoxy-benzamide] and COc1ccc(C(=O)Nc2ccc(C(C)(C)C#N)c(C(F)(F)F)c2)cc1OC [Example 99, N-[4-(Cyano-dimethyl-methyl)-3-trifluoromethyl-phenyl]-3,4-dimethoxy-benzamide] fall in the same range of IC50: 150 to 400 nM for the first, 150 to 400 nM for the second.
